Reference: patent US10767149B2, “Microfluidic device for three dimensional and compartmentalized coculture of neuronal and muscle cells, with functional force readout” (priority 2016, dated 2020)
“Also recorded” adds a separate entry of the source.

Tests used:
Assay type in all cases: cell-based, mouse
[1] = tested on: motor neurons in neurospheres innervating C2C12-derived muscle bundle; test: Glutamate stimulation of neurospheres in three-dimensional microfluidic neuron-muscle coculture
Procedure: . After reassembling an open-reservoir variant of the microfluidic device onto the muscle strip, the medium contained in all channels was flushed with a collagen-Matrigel mix. Neurospheres ˜300 to 400 μm in diameter were manually selected, resuspended with the same collagen-Matrigel mixture as above, and individually pipetted into the leftmost channel (FIG. 9d and FIG. 8) before the devices were placed in the incubator for matrix gelation, after which medium was supplied to both open reservoirs. The diameter of the neurospheres being greater than the inter-post distance ensured their restriction to the assign channel, resulting in a physical separation of ˜1 mm between the neurons and the muscles.
The first muscle contraction, indicative of the presence of functional NMJs, was recorded 80 s after glutamate administration and the twitching frequency rose during the subsequent 120 s to reach a steady value of ˜1.25 Hz (FIG. 10a). The delay in contraction and increase of the twitching frequency is likely due to the diffusion of the glutamate to the motor neurons embedded in the ECM since this lag is absent in adherent 2D cultures (T. Wada, M. Honda, I. Minami, N. Tooi, Y. Amagai, N. Nakatsuji, K. Aiba, PLoS One 2009, 4, DOI 10.1371/journal.pone.0006722) or three-dimensional constructs in suspension (Y. Morimoto, M. Kato-Negishi, H. Onoe, S. Takeuchi, Biomaterials 2013, 34, 9413).
All three-dimensional cell cultures in the microfluidic devices were carried out in a collagen:Matrigel hydrogel in a 4:1 ratio. Rat tail type I collagen (Corning) was mixed on ice with 10×PBS with phenol red (serving as pH indicator), 0.5 N NaOH and water for cell culture in order to yield a collagen concentration of 2 mg·ml^−1 at a pH of 7.4. Matrigel without growth factors (BD science) was thoroughly mixed to the collagen at 20% of the final gel mixture volume. The gel was then used within a few minutes following its preparation in order to avoid pre-polymerization.
C2C12 were trypsinized, counted and centrifuged for 5 min at 200 rcf. […]

[2] = tested on: NMJs between ChR2^H134R-HBG3-MN and C2C12-derived myotubes
[3] = tested on: NMJs between ChR2^H134R-HBG3-MN neurospheres and C2C12-derived muscle bundle

Q: What does the source list for `N[C@@H](CCC(=O)O)C(=O)O` [Glutamate]?
A: steady muscle twitching frequency ([1]; 400 μM in medium): ~1.25 Hz; time to first muscle contraction after administration ([1]; 400 μM in medium, leftmost channel): 80 s; time over which twitching frequency rose to steady value ([1]; 400 μM, after first contraction): 120 s

Q: For α-bungarotoxin, which “contractility of the myocytes after application (spontaneous twitches)” value [2] is on record?
A: still contractile; also recorded: did not alter the contractility of the myocytes

Q: What about the “effect on light-induced muscle contraction” value [2] of the same compound?
A: inhibited

Q: And the “myocytes showing inhibition of light-induced muscle contraction” value [2]?
A: 17/17

Q: What about the “effect on light-driven muscle contraction (force F)” value [3] of the same compound?
A: inhibited the contractions; also recorded: inhibited muscle contraction
